# Experimental data: a melting point compilation (Tetko et al.; mined from patent text by program, amines drawn as free bases though some values may be those of a salt)
row,melting point [°C],SMILES
1,214 to 216,Nc1nc2ccccc2c2c1nc(-c1ccccc1)n2CCCCNS(=O)(=O)c1ccc(F)cc1
2,214 to 215,O=C(O)COc1cc2onc(-c3ccccc3F)c2cc1Cl
3,214,O=C(Nc1cccc2c1C(=O)N(C1CCN(c3ccncc3)CC1)C2=O)c1ccc(Cl)s1
4,207 to 208,CS(=O)(=O)c1ccc(-c2cn(-c3ccccc3)nc2C(=O)O)cc1
5,152,O=C(O)Cc1cccc(NC(=O)NCC(=O)N2[C@@H](c3ccccc3)CC[C@H]2c2ccccc2)c1
6,97 to 99,Cc1cc(Oc2cccc(C(F)(F)F)c2)nn1C(=O)Nc1ccc(Cl)c(Cl)c1
7,245 to 246,Cc1cc(CCC(=O)O)nc(-c2nc(=O)c3ccccc3s2)c1
8,89.5 to 91.5,COCOc1cc(CCCOc2nn(Cc3ccccc3)cc2CC(=O)O)n(Cc2ccc(Cl)cc2Cl)n1
9,93 to 95,CC(C)Nc1cccnc1N1CCN(C(=O)c2ccc(C(=O)N[C@H](CO)c3ccccc3)cc2)CC1
10,250 to 253,O=C(O)C1=Cc2cc(Cl)ccc2N(Cc2ccc(Cl)cc2)C1C(F)(F)F (configuration not stated)
11,102 to 103,O=C(CC1(O)C(=O)N(Cc2ccc(Cl)cc2)c2ccccc21)C1CC1 (configuration not stated)
12,101 to 108,CC1CN(Cc2ccccc2)CCC12CC(c1ccccc1)=NO2 (configuration not stated)
13,163 to 164,O=C(O)CCC(=NO)c1ccc(-c2ccc(Br)cc2F)cc1
14,103 to 104,CO/C=C(/C(=O)OC)c1ccccc1Oc1nc(Cl)nc(Oc2ccccc2)n1
15,148 to 150,CCCOc1ccc(-c2nc3n(c2-c2ccncc2)CCC3)cc1
16,175,Cc1ccc(S(=O)(=O)NC(=O)OCCc2ccc(-n3c(CCCc4ccccc4)nc4c(C)nc(C)cc43)cc2)cc1
17,138 to 142,CCOC(=O)C(=O)Nc1nc2c(OC)ccc(-c3ccccc3)c2s1

row,melting point [°C],SMILES
1,205,COC(=O)C1=NNC(C)=C(C(=O)OC)C1c1ccccc1C(F)(F)F (configuration not stated)
2,76 to 78,CCCCCNC(=O)n1nc(Oc2ncc(C(F)(F)F)cc2Cl)c(Cl)c1C
3,174 to 176,O=C(c1ccc(-c2ccccc2)cc1)c1ccc([N+](=O)[O-])cc1
4,237 to 239,CCOc1ccc(-c2ccc3c(c2)C=C(C(=O)O)CCN3S(C)(=O)=O)cc1F
5,67.7 to 68.5,CC(C)(C)OC(=O)CCOCCc1cccc(-c2nc(=O)c3ccccc3s2)n1
6,208,CCOc1ccc(C(=O)Nc2ccc3ccc(Cl)nc3n2)cc1
7,225 to 227,Cc1cc(-n2ccc(OCc3ccc(C(F)(F)F)cc3)cc2=O)sc1C(=O)NCc1ccccc1
8,270 to 272,CC1CC(N2C(=O)c3ccccc3C2=O)C(=O)NC1=O (configuration not stated)
9,118 to 120,CCCCc1nc(Cl)c(C=O)n1Cc1ccc2oc(-c3ccccc3C#N)c(OC)c2c1
10,223 to 224,COC(=O)c1ccc(NC(=O)Nc2ccc(OC)c(C34CC5CC(CC(C5)C3)C4)c2)cc1
11,140 to 155,Nc1cccc(-c2ccc(OCCN3CC4C(N)C4C3)c3ccccc23)n1 (configuration not stated)
12,162 to 164,Cc1ccccc1C(CCC(=O)O)Oc1cc(OCc2ccsc2)ccc1-c1cc(C(=O)O)on1 (racemic)
13,205 to 207,O=C1CCC(N2C(=O)c3ccc(CNC(=O)c4ccc5ccccc5n4)cc3C2=O)C(=O)N1 (configuration not stated)
14,190,NCC=Cc1ccc(NC(=O)c2ccccc2-c2ccc(C(F)(F)F)cc2)cc1
15,265 to 267,N#Cc1ccc(NC(=O)Nc2ccc(S(N)(=O)=O)cc2)cc1
16,194,CCOC(=O)c1cnn(C)c1C(=O)Nc1ccc2nc(N(C)C)nn2c1

# The next lines start with the molecule.
row,SMILES,melting point [°C]
1,COCCCN1C(=O)CC(=O)Nc2ccccc21,137 to 138
2,CCOc1ccc(C2(C(=O)O)CC(F)(F)C2(F)F)cc1 (configuration not stated),194
3,CC(N1C(=O)C(=O)N(c2ccc(C#N)cc2)C1=S)C(C)(C)C (configuration not stated),198
4,COC(=S)NC[C@H]1CN(c2ccc(-c3nc(Cn4cncn4)cs3)c(F)c2)C(=O)O1,189 to 191
5,NC(CCCc1ccccc1)C(=O)O (configuration not stated),213 to 215
6,C1CC2CNCCNCCNCCNCC(C1)N2,90 to 90.5
7,O=C(NCCN1CCC2(CC1)C(=O)NCN2c1ccccc1)c1ccc(F)cc1[N+](=O)[O-],160
8,O=c1[nH]c2scc(C3CCCCC3)c2[nH]c1=O,> 270
9,CC(=O)C(=[N+]=[N-])C(=O)CCCCCCCCCc1ccccc1,29 to 31
10,CCNC(=O)c1ccc(-n2nnc(C(=O)NC3CC3)c2CCCCCF)cc1,150
11,O=S1CCNCc2c(Cl)cccc21 (configuration not stated),125 to 126
12,CCOC(=O)c1cn(C2COC2)c2cc(F)c(F)cc2c1=O,177 to 178
13,Cc1noc(C2CCCCC2=O)n1 (configuration not stated),74 to 76
14,CC(C)(C)OC(=O)NCCCCC/C=C/C(=O)O,76 to 78
15,COCCOc1ccc(C#CC2(O)CN3CCC2CC3)cc1Cl (configuration not stated),138 to 139
16,CCNc1nc(Cl)c(SC)c(Cl)n1,147
17,COc1ccccc1-c1c(=O)[nH]c2cc(Cl)c(Cl)cc2[n+]1[O-],239 to 241
18,CCn1c2s[nH]c(=O)c2c(=O)c2cc(F)c(N3CCN(c4ncccn4)CC3)c(OC(F)F)c21,259 to 262
19,CCCOc1ccc(S(=O)(=O)N2CCNCC2)cc1-c1cc2c(=O)n(C)c(=O)n(CCC)c2[nH]1,237
20,COc1cc2cc3ncc(C#N)c(Nc4ccc(F)c(Cl)c4)c3cc2cc1OC,> 280

row,SMILES,melting point [°C]
1,CCCc1nnc2n1-c1ccc(Br)cc1C(c1ccccn1)=NC2,184 to 186
2,c1cc(-c2ccc(OCCCN3CCCCC3)cc2)ccc1CN1CCCCC1,90
3,CCN(C(=O)C1CC1)c1cnn2ccccc12,83 to 86
4,Nc1nc(Cl)cc(NCC2(CO)COC2)n1,185 to 186
5,CCCCCCCCCCCc1cc2ccc(C(=O)OCCCC)cc2[nH]1,73 to 76
6,CCCCOC(=O)[C@H]1CN(c2ccc3c(c2)oc(=O)n3C(C)C)C(=O)O1,86 to 89
7,COc1cc(C)c(S(=O)(=O)N(C)C)cc1[N+](=O)[O-],130 to 132
8,COc1cc(Cc2c(N)nc(N)nc2O)cc(OC)c1OC,275 to 276
9,Nc1nc(OCC(F)(F)F)cc(C(F)(F)F)n1,108 to 110
10,CCc1c(C(=O)C(N)=O)c2c(NCC(=O)OC)cccc2n1Cc1ccccc1,188 to 193
11,CCOC(=O)CNc1c(C)cc(C(O)(C(F)(F)Cl)C(F)(F)Cl)cc1C,102 to 104
12,O=c1[nH]c2cc(Cl)cc(Cl)c2c(O)c1Sc1ccc(O)cc1,> 300
13,NS(=O)(=O)c1ccsc1C(=O)OC1COC1,158 to 160
14,CCNC(=O)c1ccc(F)c2c1CC(N(CCCc1c[nH]c3ccc(F)cc13)C1CCC1)CO2 (configuration not stated),130
15,COC(=O)c1cc2cc(N)ccc2o1,112 to 113
16,CC1(C)Cn2c(nc3c(N)nc4ccccc4c32)CN1S(C)(=O)=O,227 to 228
17,CC(C)(C)c1cc(N2CCN(C(=O)c3ccc(N)cc3)C2=O)cc(C(C)(C)C)c1O,> 260
18,CCC1=Nc2c(C)nn(C)c2C2=NCC(C)N12 (configuration not stated),105 to 107
19,O=C(O)C1CN(CCCS(=O)(=O)O)CCN1 (configuration not stated),190 to 191
